# Where “and” joins values, the source holds several entries; their conditions need not be identical. Equal entries are not always repeated.
# Assays:
# OASS-B = target: T1, OASS-B (Salmonella typhimurium, UniProt P29848); assay: Ligand binding affinity to OASS-B by PLP fluorescence titration; conditions: PLP fluorescence at 500 nm, excitation 412 nm, 100 mM Hepes pH 7.0, 20 °C
# T1 construct: OASS-A and OASS-B were expressed and purified as previously described; made in house
# Method: (§1) OASS-A and OASS-B were expressed and purified as previously described. The binding affinity of selected ligands to OASS-A and OASS-B was determined by monitoring the increase in fluorescence emission of the bound PLP at 500 nm following excitation at 412 nm, [55]. Emission spectra were collected at increasing ligand concentrations in the presence of 0.05–1 µM OASS, 100 mM Hepes buffer, pH 7.0 at 20°C. DMSO and/or potassium hydroxide were added when needed to solubilize the compounds and pH was checked to be between 7 and 8.5. Spectra were corrected for the buffer contribution. Fluorescence measurements were carried out using a FluoroMax-3 fluorometer (HORIBA-Jobin Yvon), equipped with a thermostated cell-holder.
# (§2) The dependence of fluorescence intensity at 500 nm on ligand concentration was fitted to a binding isotherm: [drawing 1] (1) where I is the fluorescence intensity at 500 nm in the presence of the ligand, I0 is the fluorescence intensity in the absence of ligand, Imax is the maximum fluorescence change at saturating ligand concentrations, [L] is the ligand concentration, and Kd is the dissociation constant of the OASS-ligand complex. This measurement is a direct determination of ligand dissociation constant in the absence of substrate, thus it coincides with Ki, independently from the inhibition mechanism.
# (§3) A total of 12 compounds for OASS-A (Table 1) and 11 compounds for OASS-B (Table 2) predicted to be potential ligands were experimentally tested by determining their dissociation constants exploiting PLP fluorescence changes as a function of ligand concentration. The observed increases in coenzyme fluorescence and the concomitant blue shifts of the peaks upon ligand binding result from the closure of the active site – thus altering the coenzyme microenvironment, [55]. It is important to point out that the evaluated dissociation constants for these compounds correspond to their inhibition constants, Ki, because they occupy the enzyme active site, [19], and, therefore, are purely competitive inhibitors.
# OASS-A = target: T2, OASS-A (Salmonella typhimurium, UniProt P0A1E3); assay: Ligand binding affinity to OASS-A by PLP fluorescence titration; conditions: for Kd: PLP fluorescence at 500 nm, excitation 412 nm, 100 mM Hepes pH 7.0, 20 °C
# T2 construct: OASS-A and OASS-B were expressed and purified as previously described; made in house
# T2 sequence (P0A1E3 whole entry): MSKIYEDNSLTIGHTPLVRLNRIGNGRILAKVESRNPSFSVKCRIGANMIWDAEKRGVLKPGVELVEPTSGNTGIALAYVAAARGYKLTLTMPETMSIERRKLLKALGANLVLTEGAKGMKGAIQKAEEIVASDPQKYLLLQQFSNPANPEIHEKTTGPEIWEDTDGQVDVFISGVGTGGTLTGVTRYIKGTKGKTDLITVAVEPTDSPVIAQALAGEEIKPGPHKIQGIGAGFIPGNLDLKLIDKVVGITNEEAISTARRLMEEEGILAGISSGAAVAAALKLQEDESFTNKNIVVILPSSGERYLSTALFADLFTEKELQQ
# Method: as §1, §2, §3
# OASS = assay: Reaction or time-dependent inactivation of OASS by ligand; assay type: biochemical, Salmonella typhimurium; conditions: under the paper's experimental conditions
# [1] = system: S. typhimurium knock-out for cysteine synthase; set-up: method as in PMID 18957594; conditions: cysteine synthase knock-out vs wild type; cited from earlier work
# T1 sequence (P29848 whole entry): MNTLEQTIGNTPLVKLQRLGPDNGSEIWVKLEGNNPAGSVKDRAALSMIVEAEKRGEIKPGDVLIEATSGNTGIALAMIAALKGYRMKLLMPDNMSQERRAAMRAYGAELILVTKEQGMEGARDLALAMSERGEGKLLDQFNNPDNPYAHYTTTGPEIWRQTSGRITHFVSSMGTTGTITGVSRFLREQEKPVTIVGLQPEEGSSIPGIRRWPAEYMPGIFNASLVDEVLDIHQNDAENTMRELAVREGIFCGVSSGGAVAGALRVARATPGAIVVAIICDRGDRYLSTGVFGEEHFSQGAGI
structure (smiles),measurement,setting,value
O=C(O)CSc1nsc(SCC(=O)O)n1 [Compound 16],Kd,OASS-B,> 1500 µM
CC1(C(=O)O)Cc2oncc2CC1C(=O)O (centres unmarked) [Compound 18],Kd,OASS-B,> 1500 µM
O=C(O)/C=C(/Cl)CC(=O)O [Compound 13],Kd,OASS-B,33 ± 2 µM
same,Kd,OASS-A,29 ± 3 µM
same,reaction or time-dependent inactivation of OASS,OASS,no reaction or time-dependent inactivation of OASS was observed
Cc1nnc(NC(=O)c2c(C(=O)O)cccc2[N+](=O)[O-])s1 [Compound 10],Kd,OASS-A,> 1500 µM
C[S+]([O-])CCC(NS(=O)(=O)c1ccccc1)C(=O)O (centres unmarked) [Compound 22],Kd,OASS-B,> 1500 µM
O=C(O)CNC(=O)CNC(=O)C1C2C=CC(C2)C1C(=O)O (centres unmarked) [Compound 1],Kd,OASS-B,50 ± 5 µM
same,Kd,OASS-A,3.8 µM and < 100 µM and 3.7 µM
CCn1ncc([N+](=O)[O-])c1C(=O)O [Compound 23],Kd,OASS-B,> 1500 µM
O=C(O)C1CCCCN1S(=O)(=O)c1cccc([N+](=O)[O-])c1 (centres unmarked) [Compound 5],Kd,OASS-A,218 ± 61 µM
O=C(O)CCN(CCC(=O)O)S(=O)(=O)c1ccccc1 [Compound 19],Kd,OASS-B,> 1500 µM
CC1=C(C(=O)O)N2C(=O)C(NC(=O)c3nn(C)cc3[N+](=O)[O-])C2SC1 (centres unmarked) [Compound 8],Kd,OASS-A,732 ± 72 µM
O=C(NC(Cc1ccccc1)C(=O)O)c1ccco1 (centres unmarked) [Compound 9],Kd,OASS-A,1300 ± 400 µM
CCC1([N+](=O)[O-])CN(CC(=O)O)CN(CC(=O)O)C1 [Compound 21],Kd,OASS-B,> 1500 µM
O=C(O)C1CC=CCC1C(=O)Nc1nncs1 (centres unmarked) [Compound 2],Kd,OASS-B,> 1500 µM
same,Kd,OASS-A,82 ± 18 µM
CC(C)C(NS(=O)(=O)c1cccs1)C(=O)O (centres unmarked) [Compound 3],Kd,OASS-B,> 1500 µM
same,Kd,OASS-A,95 ± 10 µM
O=C(O)c1cn(C2CC2)c2cc(N3CCNCC3)c(F)cc2c1=O [ciprofloxacin],MIC lower than wild type bacterium,[1],500 fold
O=C(O)C1CC=CCC1C(=O)NCc1ccncc1 (centres unmarked) [Compound 6],Kd,OASS-A,283 ± 19 µM
O=C(O)c1ccoc1CN1CCOCC1 [Compound 11],Kd,OASS-A,> 1500 µM
Cn1nnnc1Sc1ncccc1C(=O)O [Compound 14],Kd,OASS-B,810 ± 110 µM
same,Kd,OASS-A,> 1500 µM
CC1(C)OC(=O)C(=CNC(CCC(=O)O)C(=O)O)C(=O)O1 (centres unmarked) [Compound 17],Kd,OASS-B,> 1500 µM
CC(C)CC(NC=C1C(=O)OC(C)(C)OC1=O)C(=O)O (centres unmarked) [Compound 12],Kd,OASS-A,> 1500 µM
same,binding to OASS-A (in words),OASS-A; fluorimetric titration,no binding was observed
CC(C)CC(NC(=O)c1ccco1)C(=O)O (centres unmarked) [Compound 7],Kd,OASS-A,558 ± 131 µM
O=C(O)CC(C(=O)O)c1ccccc1 (centres unmarked) [Compound 4],Kd,OASS-A,103 ± 9 µM
